According to PubChem BioAssay (NCI):
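Cells were grown in 96-well plates and exposed to each compound for 48 hours at five concentrations; endpoints were interpolated linearly between bracketing concentrations, or set to the highest concentration if not reached. TGI: total growth inhibition.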

How the values were obtained:
Experiment in all cases: NCI tumour cell line growth inhibition, 48 h
786-0 renal = system: 786-0 renal
A498 renal = system: A498 renal
A549 NSCLC = system: A549 NSCLC
ACHN renal = system: ACHN renal
BT-549 breast = system: BT-549 breast
CAKI-1 renal = system: CAKI-1 renal
CCRF-CEM leukemia = system: CCRF-CEM leukemia
COLO 205 colon = system: COLO 205 colon
DLD-1 colon = system: DLD-1 colon
DMS 114 small cell lung = system: DMS 114 small cell lung
DMS 273 small cell lung = system: DMS 273 small cell lung
DU-145 prostate = system: DU-145 prostate
EKVX NSCLC = system: EKVX NSCLC
HCC-2998 colon = system: HCC-2998 colon
HCT-116 colon = system: HCT-116 colon
HCT-15 colon = system: HCT-15 colon
HL-60(TB) leukemia = system: HL-60(TB) leukemia
HOP-18 NSCLC = system: HOP-18 NSCLC
HOP-62 NSCLC = system: HOP-62 NSCLC
HOP-92 NSCLC = system: HOP-92 NSCLC
HS 578T breast = system: HS 578T breast
HT29 colon = system: HT29 colon
IGROV1 ovarian = system: IGROV1 ovarian
K-562 leukemia = system: K-562 leukemia
KM12 colon = system: KM12 colon
KM20L2 colon = system: KM20L2 colon
LOX IMVI melanoma = system: LOX IMVI melanoma
LXFL 529 NSCLC = system: LXFL 529 NSCLC
M14 melanoma = system: M14 melanoma
M19-MEL melanoma = system: M19-MEL melanoma
MALME-3M melanoma = system: MALME-3M melanoma
MCF7 breast = system: MCF7 breast
MDA-MB-231 breast = system: MDA-MB-231 breast
MDA-MB-435 = system: MDA-MB-435
MDA-N = system: MDA-N
MOLT-4 leukemia = system: MOLT-4 leukemia
NCI-H226 lung = system: NCI-H226 lung
NCI-H23 lung = system: NCI-H23 lung
NCI-H460 lung = system: NCI-H460 lung
NCI-H522 lung = system: NCI-H522 lung
NCI/ADR-RES ovarian = system: NCI/ADR-RES ovarian
OVCAR-3 ovarian = system: OVCAR-3 ovarian
OVCAR-4 ovarian = system: OVCAR-4 ovarian
OVCAR-5 ovarian = system: OVCAR-5 ovarian
OVCAR-8 ovarian = system: OVCAR-8 ovarian
PC-3 prostate = system: PC-3 prostate
RPMI-8226 leukemia = system: RPMI-8226 leukemia
RXF 393 renal = system: RXF 393 renal
RXF-631 renal = system: RXF-631 renal
SF-268 CNS = system: SF-268 CNS
SF-295 CNS = system: SF-295 CNS
SF-539 CNS = system: SF-539 CNS
SK-MEL-2 melanoma = system: SK-MEL-2 melanoma
SK-MEL-28 melanoma = system: SK-MEL-28 melanoma
SK-MEL-5 melanoma = system: SK-MEL-5 melanoma
SK-OV-3 ovarian = system: SK-OV-3 ovarian
SN12C renal = system: SN12C renal
SNB-19 CNS = system: SNB-19 CNS
SNB-75 CNS = system: SNB-75 CNS
SNB-78 CNS = system: SNB-78 CNS
SR leukemia = system: SR leukemia
SW-620 colon = system: SW-620 colon
T-47D breast = system: T-47D breast
TK-10 renal = system: TK-10 renal
U251 CNS = system: U251 CNS
UACC-257 melanoma = system: UACC-257 melanoma
UACC-62 melanoma = system: UACC-62 melanoma
UO-31 renal = system: UO-31 renal
XF 498 CNS = system: XF 498 CNS

COc1cc(/C=C2\CCC(CN(C)C)C2=O)ccc1OC(=O)c1ccccc1 (centres undefined)
TGI (786-0 renal): 12.4 µM | TGI (A498 renal): 33.1 µM | TGI (A549 NSCLC): 51.5 µM | TGI (ACHN renal): 28.7 µM | TGI (BT-549 breast): 30 µM | TGI (CAKI-1 renal): 32.5 µM | TGI (CCRF-CEM leukemia): 9.77 µM | TGI (COLO 205 colon): 24.8 µM | TGI (DLD-1 colon): 16.1 µM | TGI (DMS 114 small cell lung): 40.9 µM | TGI (DMS 273 small cell lung): 27.4 µM | TGI (DU-145 prostate): 29.8 µM | TGI (EKVX NSCLC): 28.1 µM | TGI (HCC-2998 colon): 30.1 µM | TGI (HCT-116 colon): 22.1 µM | TGI (HCT-15 colon): 20.4 µM | TGI (HL-60(TB) leukemia): 8.71 µM | TGI (HOP-18 NSCLC): 30.9 µM | TGI (HOP-62 NSCLC): 23.5 µM | TGI (HOP-92 NSCLC): 32.6 µM | TGI (HS 578T breast): 74.8 µM | TGI (HT29 colon): 26.6 µM | TGI (IGROV1 ovarian): 27.9 µM | TGI (K-562 leukemia): 9.04 µM | TGI (KM12 colon): 13.7 µM | TGI (KM20L2 colon): 30.3 µM | TGI (LOX IMVI melanoma): 13 µM | TGI (LXFL 529 NSCLC): 9 µM | TGI (M14 melanoma): 22.9 µM | TGI (M19-MEL melanoma): 24.7 µM | TGI (MALME-3M melanoma): 29.5 µM | TGI (MCF7 breast): 21 µM | TGI (MDA-MB-231 breast): 19.1 µM | TGI (MDA-MB-435): 27.3 µM | TGI (MDA-N): 29.6 µM | TGI (MOLT-4 leukemia): 7.03 µM | TGI (NCI-H226 lung): 33.8 µM | TGI (NCI-H23 lung): 36.7 µM | TGI (NCI-H460 lung): 37.7 µM | TGI (NCI-H522 lung): 10.4 µM | TGI (NCI/ADR-RES ovarian): 48.7 µM | TGI (OVCAR-3 ovarian): 21.3 µM | TGI (OVCAR-4 ovarian): 25.5 µM | TGI (OVCAR-5 ovarian): 33.8 µM | TGI (OVCAR-8 ovarian): 22 µM | TGI (PC-3 prostate): 30 µM | TGI (RPMI-8226 leukemia): 9.3 µM | TGI (RXF 393 renal): 15.4 µM | TGI (RXF-631 renal): 23.6 µM | TGI (SF-268 CNS): 27.5 µM | TGI (SF-295 CNS): 32 µM | TGI (SF-539 CNS): 30.4 µM | TGI (SK-MEL-2 melanoma): 32.7 µM | TGI (SK-MEL-28 melanoma): 29.2 µM | TGI (SK-MEL-5 melanoma): 29.3 µM | TGI (SK-OV-3 ovarian): 52.4 µM | TGI (SN12C renal): 25.1 µM | TGI (SNB-19 CNS): 25.5 µM | TGI (SNB-75 CNS): 35 µM | TGI (SNB-78 CNS): 39.9 µM | TGI (SR leukemia): 6.97 µM | TGI (SW-620 colon): 17.8 µM | TGI (T-47D breast): 7.9 µM | TGI (TK-10 renal): 23.5 µM | TGI (U251 CNS): 29.8 µM | TGI (UACC-257 melanoma): 26.6 µM | TGI (UACC-62 melanoma): 30.9 µM | TGI (UO-31 renal): 29.8 µM | TGI (XF 498 CNS): 34.6 µM
